Experimental data reported in ChEMBL document CHEMBL1135216, “New 2-(1-adamantylcarbonyl)pyridine and 1-acetyladamantane thiosemicarbazones-thiocarbonohydrazones: cell growth inhibitory, antiviral and antimicrobial activity evaluation” (Bioorg Med Chem Lett, 2002).
Converted amounts (≈) assume the structure as drawn.

Key:
[1] = test system: E6SM; assay: Tested for antiviral activity against VSV-virus in human embryonic skin muscle fibroblasts; type: functional; settings: Muscle tissue
[2] = test system: E6SM; assay: Tested for antiviral activity against herpes simplex virus type 1(KOS) in E6SM cell line(human embryonic skin-muscle fibroblasts); type: functional
[3] = test system: E6SM; assay: Tested for antiviral activity against thymidine kinase-deficient (TK-HSV-2G) virus in E6SM cell line(human embryonic skin-muscle fibroblasts); type: functional
[4] = test system: E6SM; assay: Tested for antiviral activity against vaccinia virus in human embryonic skin muscle fibroblast; type: functional; settings: Muscle tissue
[5] = test system: E6SM; assay: The compound was tested for antiviral activity against thymidine kinase-deficient (TK-HSV-1)virus in E6SM cell line(human embryonic skin-muscle fibroblasts); type: functional
[6] = test system: E6SM; assay: Tested for cytotoxic activity in human embryonic skin muscle fibroblast (E6SM); type: functional; settings: Muscle tissue
[7] = test system: HEL; assay: Tested for cytotoxic activity in human embryonic lung fibroblast (HEL); type: functional
[8] = test system: HEL; assay: (§1) Tested for antiviral activity against thymidine kinase wild type Varicella zoster virus in human embryonic lung fibroblast; type: functional
[9] = test system: HEL; assay: Tested for antiviral activity against thymidine kinase deficient Varicella zoster virus in human embryonic lung fibroblasts
[10] = test system: CCRF-CEM; assay: Tested for the inhibitory concentration against cell growth of human leukemic cell line CCRF-CEM; type: functional
[11] = test system: CCRF-CEM; assay: Tested for the concentration required to reduce the viability of leukemia cells by 50% against cell growth of T cell leukemia cell line CCRF-CEM using MTT assay; type: functional; settings: Homo sapiens, read-out: LC50 (the source's name)
[12] = test system: HeLa; assay: The compound was tested for antiviral activity against VSV-virus in human epithelial cells; type: functional
[13] = test system: Escherichia coli; assay: Tested for the antimicrobial activity against Escherichia coli ATCC 25922; type: functional
[14] = test system: HEL; assay: Tested for antiviral activity against human cytomegalovirus (AD-169) in human embryonic lung fibroblasts; type: functional
[15] = test system: HEL; assay: Tested for antiviral activity against thymidine kinase deficient Varicella zoster virus in human embryonic lung fibroblasts; type: functional
[16] = test system: E6SM; assay: as §1; type: functional
[17] = test system: HeLa; assay: Tested for antiviral activity against coxsackie-B4 virus in human epithelial cell line; type: functional
[18] = test system: HL-60; assay: Tested for the inhibitory concentration against cell growth of human leukemic cell line HL60; type: functional
[19] = test system: HL-60; assay: Tested for the concentration required to reduce the viability of leukemia cells by 50% against cell growth of HL60 acute myeloid leukemia using MTT assay; type: functional; settings: Homo sapiens, read-out: LC50 (the source's name)
[20] = test system: HL-60; assay: Tested for the inhibitory concentration against cell growth of HL60 acute myeloid leukemia using MTT assay; type: functional; settings: Homo sapiens
[21] = test system: HeLa; assay: Tested for cytotoxic activity in human epithelial cell line (HeLa); type: functional
[22] = test system: HuT78; assay: Tested for the inhibitory concentration against cell growth of human leukemic cell line HuT78; type: functional
[23] = test system: HuT78; assay: Tested for the concentration required to reduce the viability of leukemia cells by 50% against cell growth of HuT78 T lymphoma using MTT assay; type: functional; settings: Homo sapiens, read-out: LC50 (the source's name)
[24] = test system: K562; assay: Tested for the concentration required to reduce the viability of leukemia cells by 50% against cell growth of K562 chronic myeloid leukemia using MTT assay; type: functional; settings: Homo sapiens, read-out: LC50 (the source's name)
[25] = test system: Klebsiella pneumoniae; assay: Tested for the antimicrobial activity against Klebsiella pneumoniae ATCC 13883; type: functional
[26] = test system: MOLT-4; assay: Tested for the inhibitory concentration against cell growth of human leukemic cell line MOLT-4; type: functional
[27] = test system: MOLT-4; assay: Tested for the concentration required to reduce the viability of leukemia cells by 50% against cell growth of T cell leukemia cell line MOLT-4 using MTT assay; type: functional; settings: Homo sapiens, read-out: LC50 (the source's name)
[28] = test system: MT4; assay: (§2) Tested for cytotoxic concentration required to reduce the viability of MT-4 cells by 50%; type: functional; settings: Homo sapiens, read-out: LC50 (the source's name)
[29] = test system: RPMI-8226; assay: Tested for the inhibitory concentration against cell growth of human leukemic cell line RPMI8226; type: functional
[30] = test system: RPMI-8226; assay: Tested for the concentration required to reduce the viability of leukemia cells by 50% against cell growth of RPMI8226 multiple myeloma using MTT assay; type: functional; settings: Homo sapiens
[31] = test system: RPMI-8226; assay: Tested for the inhibitory concentration against cell growth of […] multiple myeloma using MTT assay; type: functional; settings: Homo sapiens
[32] = test system: Staphylococcus aureus; assay: Tested for the antimicrobial activity against Staphylococcus aureus ATCC 6538; type: functional
[33] = test system: Staphylococcus epidermidis; assay: Tested for the antimicrobial activity against Staphylococcus epidermidis ATCC 12228; type: functional
[34] = test system: Staphylococcus hominis; assay: Tested for the antimicrobial activity against Staphylococcus hominis ATCC 27844; type: functional
[35] = test system: Vero; assay: Tested for cytotoxic activity in African green monkey kidney cells (Vero); type: functional; settings: Chlorocebus sabaeus
[36] = test system: Vero; assay: Tested for antiviral activity against Punta toro virus in African green monkey kidney cell (Vero); type: functional; settings: Chlorocebus sabaeus
[37] = test system: Vero; assay: Tested for antiviral activity against Reo-1 virus in African green monkey kidney cell (Vero); type: functional; settings: Chlorocebus sabaeus
[38] = test system: Vero; assay: Tested for antiviral activity against Sindbis virus in African green monkey kidney cell (Vero); type: functional; settings: Chlorocebus sabaeus
[39] = test system: Vero; assay: Tested for antiviral activity against coxsackie B-4 virus in African green monkey kidney cell (Vero); type: functional; settings: Chlorocebus sabaeus
[40] = test system: Vero; assay: Tested for antiviral activity against parainfluenza virus in african green monkey kidney cell (Vero); type: functional; settings: Chlorocebus sabaeus
[41] = test system: MT4; assay: (§3) Tested for effective concentration required to protect MT-4 cells against the cytopathicity of HIV-1(IIIB); type: functional, cell-based; settings: Homo sapiens
[42] = test system: MT4; assay: The compound was tested for effective concentration required to protect MT-4 cells against the cytopathicity of HIV-1(IIIB); type: functional, cell-based; settings: Homo sapiens
[43] = test system: MT4; assay: The compound was tested for effective concentration required to protect MT-4 cells against the cytopathicity of HIV-2(ROD); type: functional, cell-based; settings: Homo sapiens
[44] = test system: MT4; assay: The compound was tested for cytotoxic concentration required to reduce the viability of MT-4 cells; type: functional; settings: Homo sapiens
[45] = test system: CCRF-CEM; assay: Tested for the inhibitory concentration against cell growth of Tcell leukemic cell line CCRF-CEM using MTT assay; type: functional; settings: Homo sapiens
[46] = test system: HuT78; assay: Tested for the inhibitory concentration against cell growth of HuT78 T lymphoma using MTT assay; type: functional; settings: Homo sapiens
[47] = test system: K562; assay: Tested for the inhibitory concentration against cell growth of K562 chronic myeloid leukemia using MTT assay; type: functional; settings: Homo sapiens
[48] = test system: K562; assay: Tested for the inhibitory concentration against cell growth of human leukemic cell line K562; type: functional
[49] = test system: MT4; assay: as §3; type: functional; settings: Homo sapiens, read-out: LC50 (the source's name)
[50] = test system: MT4; assay: Tested for effective concentration required to protect MT-4 cells against the cytopathicity of HIV-2(ROD); type: functional; settings: Homo sapiens, read-out: LC50 (the source's name)
[51] = test system: MOLT-4; assay: Tested for the inhibitory concentration against cell growth of Tcell leukemic cell line MOLT-4 using MTT assay; type: functional; settings: Homo sapiens
[52] = test system: MT4; assay: as §2; type: functional, cell-based; settings: Homo sapiens, read-out: EC50 (the source's name)

Nc1nc2c(ncn2COCCO)c(=O)[nH]1 [ACYCLOVIR]
MIC [1]: 48 µg/mL (≈ 213 µM) | MIC [2]: 0.08 µg/mL (≈ 0.355 µM) | MIC [3]: 0.08 µg/mL (≈ 0.355 µM) | MIC [4]: > 400 µg/mL | MIC [5]: 48 µg/mL (≈ 213 µM) | MCC [6]: > 400 µg/mL | MCC [7]: > 50 µg/mL | MIC [8]: 1.1 µg/mL (≈ 4.88 µM) | MIC [9]: 12.3 µg/mL (≈ 54.6 µM)

N/C(S)=N\N=C(\c1ccccn1)C12CC3CC(CC(C3)C1)C2
GI50 [10]: 100 µM | CC50 [11]: 100 µM | MIC [1]: > 400 µg/mL | CC50 [2]: > 400 µg/mL | MIC [3]: > 400 µg/mL | MIC [4]: > 400 µg/mL | MIC [12]: > 400 µg/mL | CC50 [5]: > 400 µg/mL | MCC [6]: > 400 µg/mL | MIC [13]: > 3180 µg/mL | MCC [7]: > 20 µg/mL | MIC [14]: > 5 µg/mL | MIC [15]: > 20 µg/mL | MIC [16]: > 20 µg/mL | MIC [17]: 240 µg/mL (≈ 763 µM) | GI50 [18]: 51.1 µM | CC50 [19]: 100 µM | TGI [20]: 100 µM | MCC [21]: > 400 µg/mL | GI50 [22]: 2.4 µM | CC50 [23]: 100 µM | CC50 [24]: 100 µM | MIC [25]: > 3180 µg/mL | GI50 [26]: 6.4 µM | CC50 [27]: 100 µM | CC50 [28]: > 400 µM | GI50 [29]: 97.9 µM | CC50 [30]: 100 µM | TGI [31]: 100 µM | MIC [32]: > 3180 µg/mL | MIC [33]: > 3180 µg/mL | MIC [34]: > 3180 µg/mL | MCC [35]: 16 µg/mL | MIC [36]: > 3.2 µg/mL | MIC [37]: > 3.2 µg/mL | MIC [38]: > 3.2 µg/mL | MIC [39]: > 3.2 µg/mL | MIC [40]: > 3.2 µg/mL | EC50 [41]: > 400 µM

Cc1cn([C@H]2C[C@H](N=[N+]=[N-])[C@@H](CO)O2)c(=O)[nH]c1=O [ZIDOVUDINE]
EC50 [42]: 0.0064 µM | EC50 [43]: 0.006 µM | CC50 [44]: > 500 µM

C/C(=N/N=C(/S)N/N=C(\S)c1ccc(Cl)cc1)C12CC3CC(CC(C3)C1)C2
GI50 [10]: 100 µM | CC50 [11]: 100 µM | TGI [45]: 100 µM | MIC [1]: > 40 µg/mL | MIC [2]: > 40 µg/mL | MIC [3]: > 40 µg/mL | MIC [4]: > 5 µg/mL | MIC [12]: > 40 µg/mL | MIC [5]: > 40 µg/mL | MCC [6]: 200 µg/mL | MIC [13]: > 2300 µg/mL | MCC [7]: > 5 µg/mL | MIC [14]: > 2 µg/mL | MIC [15]: > 2 µg/mL | MIC [8]: > 2 µg/mL | MIC [17]: > 40 µg/mL | GI50 [18]: 100 µM | CC50 [19]: 100 µM | TGI [20]: 100 µM | MCC [21]: > 200 µg/mL | GI50 [22]: 100 µM | CC50 [23]: 100 µM | TGI [46]: 100 µM | CC50 [24]: 100 µM | TGI [47]: 100 µM | GI50 [48]: 100 µM | MIC [25]: > 2300 µg/mL | GI50 [26]: 100 µM | EC50 [49]: > 10 µM | CC50 [50]: > 10 µM | CC50 [27]: 100 µM | TGI [51]: 100 µM | GI50 [29]: 100 µM | CC50 ([30]; read-out: LC50 (the source's name)): 100 µM | TGI [31]: 100 µM | MIC [32]: 1150 µg/mL (≈ 2730 µM) | MIC [33]: 1150 µg/mL (≈ 2730 µM) | MIC [34]: 1150 µg/mL (≈ 2730 µM) | MCC [35]: > 400 µg/mL | MIC [36]: > 40 µg/mL | MIC [37]: > 40 µg/mL | MIC [38]: > 40 µg/mL | MIC [39]: > 40 µg/mL | MIC [40]: > 40 µg/mL | CC50 [52]: 10.1 µM
